Measured values as given in the NIST ThermoML archive (doi:10.1016/j.jct.2006.08.008).

Assays:
[1] = molar heat capacity at constant pressure; mn = molality of the nth substance listed, in mol/kg; details: 350 kPa, Liquid
[2] = mn = molality of the nth substance listed, in mol/kg; details: 350 kPa, Liquid

N[C@@H](CC(=O)O)C(=O)O [L-aminosuccinic acid] + O
Details	mass density, m1 = 0.002 [kg/m3]	mass density, m1 = 0.004 [kg/m3]	mass density, m1 = 0.00601 [kg/m3]	mass density, m1 = 0.00801 [kg/m3]	mass density, m1 = 0.01 [kg/m3]	molar heat capacity at constant pressure, m1 = 0.002 [J/K/mol]	molar heat capacity at constant pressure, m1 = 0.004 [J/K/mol]	molar heat capacity at constant pressure, m1 = 0.00601 [J/K/mol]	molar heat capacity at constant pressure, m1 = 0.00801 [J/K/mol]	molar heat capacity at constant pressure, m1 = 0.01 [J/K/mol]
[1], 278.15 K	–	–	–	–	–	75.71	75.71	75.71	75.71	75.71
[1], 283.15 K	–	–	–	–	–	75.54	75.54	75.54	75.54	75.54
[1], 288.15 K	–	–	–	–	–	75.42	75.42	75.43	75.43	75.42
[1], 293.15 K	–	–	–	–	–	75.34	75.34	75.35	75.35	75.35
[1], 298.15 K	–	–	–	–	–	75.29	75.29	75.3	75.3	75.3
[1], 303.15 K	–	–	–	–	–	75.26	75.26	75.27	75.27	75.27
[1], 308.15 K	–	–	–	–	–	75.25	75.25	75.25	75.26	75.26
[1], 313.15 K	–	–	–	–	–	75.25	75.25	75.25	75.26	75.26
[1], 318.15 K	–	–	–	–	–	75.26	75.26	75.27	75.27	75.27
[1], 323.15 K	–	–	–	–	–	75.28	75.28	75.29	75.29	75.29
[1], 328.15 K	–	–	–	–	–	75.31	75.32	75.32	75.33	75.33
[1], 333.15 K	–	–	–	–	–	75.35	75.36	75.36	75.37	75.37
[1], 338.15 K	–	–	–	–	–	75.4	75.41	75.41	75.41	75.42
[1], 343.15 K	–	–	–	–	–	75.46	75.47	75.47	75.47	75.48
[1], 348.15 K	–	–	–	–	–	75.52	75.53	75.53	75.54	75.54
[1], 353.15 K	–	–	–	–	–	75.6	75.61	75.61	75.61	75.61
[1], 358.15 K	–	–	–	–	–	75.68	75.69	75.69	75.69	75.69
[1], 363.15 K	–	–	–	–	–	75.76	75.77	75.77	75.78	75.78
[1], 368.15 K	–	–	–	–	–	75.86	75.87	75.87	75.87	75.87
[1], 373.15 K	–	–	–	–	–	75.96	75.97	75.97	75.97	75.98
[1], 378.15 K	–	–	–	–	–	76.07	76.08	76.08	76.09	76.09
[1], 383.15 K	–	–	–	–	–	76.2	76.2	76.2	76.21	76.21
[1], 388.15 K	–	–	–	–	–	76.33	76.34	76.33	76.34	76.34
[1], 393.15 K	–	–	–	–	–	76.47	76.48	76.48	76.48	76.48
[2], 278.15 K	1000.34	1000.29	1000.42	1000.62	1000.79	–	–	–	–	–
[2], 283.15 K	1000.09	1000.05	1000.2	1000.36	1000.48	–	–	–	–	–
[2], 288.15 K	999.47	999.41	999.59	999.76	999.84	–	–	–	–	–
[2], 298.15 K	997.39	997.34	997.51	997.69	997.73	–	–	–	–	–
[2], 308.15 K	994.35	994.31	994.5	994.64	994.7	–	–	–	–	–
[2], 318.15 K	990.53	990.51	990.66	990.76	990.87	–	–	–	–	–
[2], 328.15 K	985.99	986.02	986.15	986.25	986.33	–	–	–	–	–
[2], 338.15 K	980.85	980.89	981.01	981.13	981.18	–	–	–	–	–
[2], 348.15 K	975.14	975.19	975.26	975.41	975.51	–	–	–	–	–
[2], 358.15 K	968.93	968.98	969.03	969.18	969.3	–	–	–	–	–
[2], 368.15 K	962.17	962.28	962.3	962.49	962.59	–	–	–	–	–

N[C@@H](CCC(=O)O)C(=O)O [L-glutamic acid] + O
Details	mass density, m1 = 0.00249 [kg/m3]	mass density, m1 = 0.005 [kg/m3]	mass density, m1 = 0.00999 [kg/m3]	mass density, m1 = 0.01497 [kg/m3]	mass density, m1 = 0.02005 [kg/m3]	molar heat capacity at constant pressure, m1 = 0.00249 [J/K/mol]	molar heat capacity at constant pressure, m1 = 0.005 [J/K/mol]	molar heat capacity at constant pressure, m1 = 0.00999 [J/K/mol]	molar heat capacity at constant pressure, m1 = 0.01497 [J/K/mol]	molar heat capacity at constant pressure, m1 = 0.02005 [J/K/mol]
[1], 278.15 K	–	–	–	–	–	75.67	75.7	75.73	75.73	75.74
[1], 283.15 K	–	–	–	–	–	75.5	75.53	75.55	75.56	75.57
[1], 288.15 K	–	–	–	–	–	75.39	75.41	75.44	75.45	75.46
[1], 293.15 K	–	–	–	–	–	75.32	75.34	75.36	75.38	75.38
[1], 298.15 K	–	–	–	–	–	75.27	75.29	75.31	75.33	75.33
[1], 303.15 K	–	–	–	–	–	75.24	75.27	75.28	75.3	75.3
[1], 308.15 K	–	–	–	–	–	75.23	75.25	75.27	75.29	75.29
[1], 313.15 K	–	–	–	–	–	75.23	75.25	75.27	75.28	75.29
[1], 318.15 K	–	–	–	–	–	75.24	75.27	75.28	75.3	75.31
[1], 323.15 K	–	–	–	–	–	75.27	75.29	75.3	75.32	75.33
[1], 328.15 K	–	–	–	–	–	75.3	75.32	75.34	75.35	75.36
[1], 333.15 K	–	–	–	–	–	75.34	75.36	75.38	75.39	75.4
[1], 338.15 K	–	–	–	–	–	75.39	75.41	75.43	75.44	75.45
[1], 343.15 K	–	–	–	–	–	75.45	75.47	75.48	75.5	75.51
[1], 348.15 K	–	–	–	–	–	75.51	75.54	75.55	75.57	75.58
[1], 353.15 K	–	–	–	–	–	75.58	75.61	75.62	75.64	75.65
[1], 358.15 K	–	–	–	–	–	75.66	75.69	75.7	75.72	75.73
[1], 363.15 K	–	–	–	–	–	75.75	75.78	75.79	75.81	75.82
[1], 368.15 K	–	–	–	–	–	75.85	75.87	75.88	75.91	75.91
[1], 373.15 K	–	–	–	–	–	75.95	75.98	75.99	76.01	76.02
[1], 378.15 K	–	–	–	–	–	76.06	76.09	76.1	76.13	76.13
[1], 383.15 K	–	–	–	–	–	76.18	76.21	76.22	76.25	76.25
[1], 388.15 K	–	–	–	–	–	76.32	76.34	76.35	76.38	76.38
[1], 393.15 K	–	–	–	–	–	76.46	76.48	76.49	76.53	76.51
[2], 278.15 K	1000.19	1000.25	1001.06	1000.93	1001.36	–	–	–	–	–
[2], 283.15 K	999.98	999.98	1000.74	1000.64	1001.07	–	–	–	–	–
[2], 288.15 K	999.38	999.38	1000.11	1000.03	1000.44	–	–	–	–	–
[2], 298.15 K	997.3	997.33	998.03	997.95	998.34	–	–	–	–	–
[2], 308.15 K	994.32	994.31	994.97	994.92	995.33	–	–	–	–	–
[2], 318.15 K	990.49	990.5	991.14	991.09	991.48	–	–	–	–	–
[2], 328.15 K	985.92	985.99	986.59	986.57	986.97	–	–	–	–	–
[2], 338.15 K	980.82	980.87	981.45	981.46	981.84	–	–	–	–	–
[2], 348.15 K	975.1	975.18	975.74	975.74	976.12	–	–	–	–	–
[2], 358.15 K	968.87	968.96	969.5	969.51	969.88	–	–	–	–	–
[2], 368.15 K	962.18	962.24	962.76	962.76	963.12	–	–	–	–	–
